This passage reports IC50 results from US8269026B2, “Lupane derivatives useful for treating HIV” (priority 2008, dated 2012).

Molecules are shown by their SMILES.

One assay relates to HIV-1 (HIVIIIB) replication in MT2 cell line. As to the kind of experiment: HIV-1 replication in MT2 cell line with and without 30% human serum (viral RT activity in supernatant). It counts as cell-based. The following applies: Human immunodeficiency virus 1, MT2 cells, with 30% human serum, average IC50 if tested more than once, read-out: MT2 (HIVIIIB) with HS 30% IC50 range. Summed up: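 Read-out is supernatant reverse transcriptase activity on day 5 post-infection, giving IC50 and IC90. Compounds were titrated in complete medium ± 30% human serum, re-dosed after 3 days, on MT2 cells exposed for 3 h to HIVIIIB at MOI 0.5 then washed.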
As for `CC(C)C1=C2C3CCC4[C@@]5(C)CC[C@H](OC(=O)CC(C)(C)C(=O)O)C(C)(C)C5CC[C@@]4(C)[C@]3(C)CC[C@@]2(NC(=O)NCc2ncccn2)CC1=O` (stereo partly drawn) [17-67, 3β-O-(3′,3′-Dimethylsuccinyl)-17β-[N′-(pyrimidin-2-ylmethyl)ureido]-21-oxolup-18-ene], the 50% inhibitory concentration (IC50) (usually the concentration at which inhibition is half-maximal) is < 199 nM.

With `CC(C)C1=C2C3CCC4[C@@]5(C)CC[C@H](OC(=O)CC(C)(C)C(=O)O)C(C)(C)C5CC[C@@]4(C)[C@]3(C)CC[C@@]2(NC(=O)NCc2cncnc2)CC1=O` (stereo partly drawn) [17-68, 3β-O-(3′,3′-Dimethylsuccinyl)-17β-[N′-(pyrimidin-5-ylmethyl)ureido]-21-oxolup-18-ene], the IC50 was < 199 nM.

For `CC(C)C1=C2C3CCC4[C@@]5(C)CC[C@H](OC(=O)CC(C)(C)C(=O)O)C(C)(C)C5CC[C@@]4(C)[C@]3(C)CC[C@@]2(NC(=O)NC2(c3ccccn3)CC2)CC1=O` (stereo partly drawn) [17-69, 3β-O-(3′,3′-Dimethylsuccinyl)-17β-[N′-(1-pyridin-2-yl-cyclopropyl)-ureido]-21-oxolup-18-ene], the IC50 was < 199 nM.

Turning to `CC(C)C1=C2C3CCC4[C@@]5(C)CC[C@H](OC(=O)CC(C)(C)C(=O)O)C(C)(C)C5CC[C@@]4(C)[C@]3(C)CC[C@@]2(NC(=O)NC(C)(C)C2CCCCC2)CC1=O` (stereo partly drawn) [17-70, 3β-O-(3′,3′-Dimethylsuccinyl)-17β-[N′-(1-methyl-1-cyclohexyl-ethyl)-ureido]-21-oxolup-18-ene], the IC50 was > 1000 nM.

In the case of `CC(C)C1=C2C3CCC4[C@@]5(C)CC[C@H](OC(=O)CC(C)(C)C(=O)O)C(C)(C)C5CC[C@@]4(C)[C@]3(C)CC[C@@]2(NC(=O)NC(C)c2ccccn2)CC1=O` (stereo partly drawn) [17-72, 3β-O-(3′,3′-Dimethylsuccinyl)-17β-[N′-(1-pyridin-2-yl-ethyl)-ureido]-21-oxolup-18-ene], the IC50 is < 199 nM.

As to `CC(C)C1=C2[C@H]3CC[C@@H]4[C@@]5(C)CC[C@H](OC(=O)CC(C)(C)C(=O)O)C(C)(C)[C@@H]5CC[C@@]4(C)[C@]3(C)CC[C@@]2(NC(=O)NCc2nccn2C)CC1=O` [17-73, 3β-O-(3′,3′-Dimethylsuccinyl)-17β-[N′-(1-methyl-1H-imidazol-2-yl-methyl)-ureido]-21-oxolup-18-ene], the IC50 is < 199 nM.

For the compound `CC(C)C1=C2[C@H]3CC[C@@H]4[C@@]5(C)CC[C@H](OC(=O)CC(C)(C)C(=O)O)C(C)(C)[C@@H]5CC[C@@]4(C)[C@]3(C)CC[C@@]2(NC(=O)NCc2nncn2C)CC1=O` [17-74, 3β-O-(3′,3′-Dimethylsuccinyl)-17β-[N′-(4-methyl-4H-[1,2,4]triazol-3-yl-methyl)-ureido]-21-oxolup-18-ene], the 50% inhibitory concentration (IC50) was > 1000 nM.

On to `CC(C)C1=C2C3CCC4[C@@]5(C)CC[C@H](OC(=O)CC(C)(C)C(=O)O)C(C)(C)C5CC[C@@]4(C)[C@]3(C)CC[C@@]2(NC(=O)NCc2ccsc2)CC1=O` (stereo partly drawn) [17-75, 3β-O-(3′,3′-Dimethylsuccinyl)-17β-[N′-(thiophen-3-ylmethyl)-ureido]-21-oxolup-18-ene], for which the IC50 is < 199 nM.

As to `CC(C)C1=C2[C@H]3CC[C@@H]4[C@@]5(C)CC[C@H](OC(=O)CC(C)(C)C(=O)O)C(C)(C)[C@@H]5CC[C@@]4(C)[C@]3(C)CC[C@@]2(NC(=O)NCc2ccnn2C)CC1=O` [17-76, 3β-O-(3′,3′-Dimethylsuccinyl)-17β-[N′-(2-methyl-2H-pyrazol-3-yl-methyl)-ureido]-21-oxolup-18-ene], the half-maximal inhibitory concentration (IC50) was < 199 nM.

Regarding `CC(C)C1=C2[C@H]3CC[C@@H]4[C@@]5(C)CC[C@H](OC(=O)CC(C)(C)C(=O)O)C(C)(C)[C@@H]5CC[C@@]4(C)[C@]3(C)CC[C@@]2(NS(C)(=O)=O)CC1=O` [18-1, 3β-O-(3′,3′-Dimethylsuccinyl)-17β-methylsulfonylamino-21-oxolup-18-ene], the IC50 is < 199 nM.

Regarding `CC(=O)N[C@@]12CC[C@]3(C)[C@H](CC[C@@H]4[C@@]5(C)CC[C@H](OC(=O)CC(C)(C)C(=O)O)C(C)(C)[C@@H]5CC[C@]43C)C1=C(C(C)C)C(=O)C2` [19-1, 3β-O-(3′,3′-Dimethylsuccinyl)-17β-acetylamino-21-oxolup-18-ene], the IC50 is < 199 nM.

The same assay, now with this note: Human immunodeficiency virus 1, MT2 cells, without human serum, average IC50 if tested more than once, read-out: MT2 (HIVIIIB) IC50 range.
With `CC(C)C1=C2[C@H]3CC[C@@H]4[C@@]5(C)CC[C@H](OC(=O)CC(C)(C)C(=O)O)C(C)(C)[C@@H]5CC[C@@]4(C)[C@]3(C)CC[C@@]2(NS(C)(=O)=O)CC1=O` [18-1, 3β-O-(3′,3′-Dimethylsuccinyl)-17β-methylsulfonylamino-21-oxolup-18-ene], the IC50 is < 199 nM.

Regarding `CC(=O)N[C@@]12CC[C@]3(C)[C@H](CC[C@@H]4[C@@]5(C)CC[C@H](OC(=O)CC(C)(C)C(=O)O)C(C)(C)[C@@H]5CC[C@]43C)C1=C(C(C)C)C(=O)C2` [19-1, 3β-O-(3′,3′-Dimethylsuccinyl)-17β-acetylamino-21-oxolup-18-ene], the IC50 was < 199 nM.
